Experimental data taken from patent US20120029187A1, “HALOALKYLSULFONANILIDE DERIVATIVE” (Nissan Chemical Industries, Ltd., priority 2009, published 2012).

Columns and labels:
Assay type in all cases: in vivo
ducksalad [1] = experiment: Test Example 2: herbicidal effects during the vegetation period under submerged conditions; settings: treatment during the vegetation period under submerged conditions; dose 2.52 g/a
In short: (§1)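 Barnyardgrass, bulrush and ducksalad were co-sown in alluvial soil flooded to 4 cm and grown in a greenhouse at 25 to 30° C. At the 1- or 2-leaf stage, water-diluted emulsifiable concentrates went onto the water surface at set doses (g/a). Herbicidal effect was scored three weeks later on a graded scale.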

bulrush [2] = experiment: as above; settings: treatment during the vegetation period under submerged conditions; dose 2.52 g/a
In short: as §1

barnyardgrass [3] = experiment: as above; settings: treatment during the vegetation period under submerged conditions; dose 2.52 g/a
In short: as §1

ducksalad [4] = experiment: Test Example 1: herbicidal effects in preemergence treatment under submerged conditions; settings: dose 2.52 g/a
In short: (§2)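 Submerged conditions, 4 cm water over alluvial soil. Weeds sown and 2.5-leaf rice transplanted; compound applied preemergence to water surface, doses in g per are. Greenhouse, 25 to 30° C., three weeks, then 0–5 mortality rating.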

bulrush [5] = experiment: as above; settings: dose 2.52 g/a
In short: as §2

barnyardgrass [6] = experiment: as above; settings: dose 2.52 g/a
In short: as §2

transplanted rice = experiment: Test Example 1: preemergence treatment under submerged conditions, effect on crop; settings: dose 2.52 g/a
In short: as §2

redroot pigweed [7] = experiment: Test Example 4: herbicidal effect in foliage treatment; settings: dose 3.2 g/a, three weeks after application
In short: (§3)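 14-day greenhouse-grown plants (25–30° C) sprayed on foliage with diluted EC; dose as g/a; effect graded after 3 weeks.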

wild oat [8] = experiment: as above; settings: dose 3.2 g/a, three weeks after application
In short: as §3

Italian ryegrass [9] = experiment: as above; settings: dose 3.2 g/a, three weeks after application
In short: as §3

common chickweed [10] = experiment: as above; settings: dose 3.2 g/a, three weeks after application
In short: as §3

velvetleaf [11] = experiment: as above; settings: dose 3.2 g/a, three weeks after application
In short: as §3

giant foxtail [12] = experiment: as above; settings: dose 3.2 g/a, three weeks after application
In short: as §3

posumbu knotweed [13] = experiment: as above; settings: dose 3.2 g/a, three weeks after application
In short: as §3

common ragweed [14] = experiment: as above; settings: dose 3.2 g/a, three weeks after application
In short: as §3

common lambsquater [15] = experiment: as above; settings: dose 3.2 g/a, three weeks after application
In short: as §3

water foxtail [16] = experiment: as above; settings: dose 3.2 g/a, three weeks after application
In short: as §3

barnyardgrass [17] = experiment: as above; settings: dose 3.2 g/a, three weeks after application
In short: as §3

beadstraw [18] = experiment: as above; settings: dose 3.2 g/a, three weeks after application
In short: as §3

large crabgrass [19] = experiment: as above; settings: dose 3.2 g/a, three weeks after application
In short: as §3

redroot pigweed [20] = experiment: Test Example 3: herbicidal effects in soil treatment; settings: dose 3.2 g/a
In short: (§4)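 Seeds were sown in sterilized diluvial soil and covered with about 1.5 cm of soil. Compounds, formulated as emulsifiable concentrates and diluted with water, were sprayed evenly over the soil surface at set doses in g/a. Herbicidal effect was scored on a rating scale three weeks later.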

wild oat [21] = experiment: as above; settings: dose 3.2 g/a
In short: as §4

Italian ryegrass [22] = experiment: as above; settings: dose 3.2 g/a
In short: as §4

common chickweed [23] = experiment: as above; settings: dose 3.2 g/a
In short: as §4

velvetleaf [24] = experiment: as above; settings: dose 3.2 g/a
In short: as §4

giant foxtail [25] = experiment: as above; settings: dose 3.2 g/a
In short: as §4

posumbu knotweed [26] = experiment: as above; settings: dose 3.2 g/a
In short: as §4

common ragweed [27] = experiment: as above; settings: dose 3.2 g/a
In short: as §4

common lambsquater [28] = experiment: as above; settings: dose 3.2 g/a
In short: as §4

water foxtail [29] = experiment: as above; settings: dose 3.2 g/a
In short: as §4

barnyardgrass [30] = experiment: as above; settings: dose 3.2 g/a
In short: as §4

beadstraw [31] = experiment: as above; settings: dose 3.2 g/a
In short: as §4

large crabgrass [32] = experiment: as above; settings: dose 3.2 g/a
In short: as §4

Row | SMILES | C: ducksalad, herbicidal effect (evaluation scale 0-5) (ducksalad [1]) | B: bulrush, herbicidal effect (evaluation scale 0-5) (bulrush [2]) | A: barnyardgrass, herbicidal effect (evaluation scale 0-5) (barnyardgrass [3]) | C: ducksalad, herbicidal effect (evaluation scale 0-5) (ducksalad [4]) | B: bulrush, herbicidal effect (evaluation scale 0-5) (bulrush [5]) | A: barnyardgrass, herbicidal effect (evaluation scale 0-5) (barnyardgrass [6]) | a: transplanted rice, effect on crop (evaluation scale 0-5) (transplanted rice) | K: redroot pigweed, herbicidal effect (redroot pigweed [7]) | F: wild oat, herbicidal effect (wild oat [8]) | H: Italian ryegrass, herbicidal effect (Italian ryegrass [9]) | N: common chickweed, herbicidal effect (common chickweed [10]) | I: velvetleaf, herbicidal effect (velvetleaf [11]) | E: giant foxtail, herbicidal effect (giant foxtail [12]) | M: posumbu knotweed, herbicidal effect (posumbu knotweed [13]) | J: common ragweed, herbicidal effect (common ragweed [14]) | L: common lambsquater, herbicidal effect (common lambsquater [15]) | G: water foxtail, herbicidal effect (water foxtail [16]) | A: barnyardgrass, herbicidal effect (barnyardgrass [17]) | O: beadstraw, herbicidal effect (beadstraw [18]) | D: large crabgrass, herbicidal effect (large crabgrass [19]) | other results
1 | CC1(C)OCN(Cc2ccccc2NS(=O)(=O)C(F)(F)F)C(=O)C1F (stereo not drawn) [II-32] | 5 (mortality of 90% or above (nearly complete death)) | 5 (mortality of 90% or above (nearly complete death)) | 5 (mortality of 90% or above (nearly complete death)) | 5 (mortality of 90% or above (nearly complete death)) | 5 (mortality of 90% or above (nearly complete death)) | 5 (mortality of 90% or above (nearly complete death)) | 0 (mortality of less than 5% (almost ineffective)) | 1 (mortality of at least 5% and less than 20%) | 2 (mortality of at least 20% and less than 40%) | 4 (mortality of at least 70% and less than 90%) | 3 (mortality of at least 40% and less than 70%) | 4 (mortality of at least 70% and less than 90%) | 4 (mortality of at least 70% and less than 90%) | 2 (mortality of at least 20% and less than 40%) | 3 (mortality of at least 40% and less than 70%) | 2 (mortality of at least 20% and less than 40%) | 5 (mortality of 90% or above (nearly complete death)) | 5 (mortality of 90% or above (nearly complete death)) | 4 (mortality of at least 70% and less than 90%) | 4 (mortality of at least 70% and less than 90%) | K: redroot pigweed, herbicidal effect (evaluation scale 0-5) (redroot pigweed [20]): 3 (mortality of at least 40% and less than 70%); F: wild oat, herbicidal effect (evaluation scale 0-5) (wild oat [21]): 0 (mortality of less than 5% (almost ineffective)); H: Italian ryegrass, herbicidal effect (evaluation scale 0-5) (Italian ryegrass [22]): 5 (mortality of 90% or above (nearly complete death)); N: common chickweed, herbicidal effect (evaluation scale 0-5) (common chickweed [23]): 3 (mortality of at least 40% and less than 70%); I: velvetleaf, herbicidal effect (evaluation scale 0-5) (velvetleaf [24]): 3 (mortality of at least 40% and less than 70%); E: giant foxtail, herbicidal effect (evaluation scale 0-5) (giant foxtail [25]): 4 (mortality of at least 70% and less than 90%); M: posumbu knotweed, herbicidal effect (evaluation scale 0-5) (posumbu knotweed [26]): 4 (mortality of at least 70% and less than 90%); J: common ragweed, herbicidal effect (evaluation scale 0-5) (common ragweed [27]): 5 (mortality of 90% or above (nearly complete death)); L: common lambsquater, herbicidal effect (evaluation scale 0-5) (common lambsquater [28]): 0 (mortality of less than 5% (almost ineffective)); G: water foxtail, herbicidal effect (evaluation scale 0-5) (water foxtail [29]): 5 (mortality of 90% or above (nearly complete death)); A: barnyardgrass, herbicidal effect (evaluation scale 0-5) (barnyardgrass [30]): 5 (mortality of 90% or above (nearly complete death)); O: beadstraw, herbicidal effect (evaluation scale 0-5) (beadstraw [31]): 3 (mortality of at least 40% and less than 70%); D: large crabgrass, herbicidal effect (evaluation scale 0-5) (large crabgrass [32]): 5 (mortality of 90% or above (nearly complete death))
2 | CCOC(=O)N(c1ccccc1CN1COC(C)(C)C(F)C1=O)S(=O)(=O)C(F)(F)F (stereo not drawn) [II-34] | 5 (mortality of 90% or above (nearly complete death)) | 5 (mortality of 90% or above (nearly complete death)) | 5 (mortality of 90% or above (nearly complete death)) | 5 (mortality of 90% or above (nearly complete death)) | 5 (mortality of 90% or above (nearly complete death)) | 5 (mortality of 90% or above (nearly complete death)) | 0 (mortality of less than 5% (almost ineffective)) | 2 (mortality of at least 20% and less than 40%) | 0 (mortality of less than 5% (almost ineffective)) | 4 (mortality of at least 70% and less than 90%) | 4 (mortality of at least 70% and less than 90%) | 3 (mortality of at least 40% and less than 70%) | 3 (mortality of at least 40% and less than 70%) | 4 (mortality of at least 70% and less than 90%) | 4 (mortality of at least 70% and less than 90%) | 3 (mortality of at least 40% and less than 70%) | 5 (mortality of 90% or above (nearly complete death)) | 5 (mortality of 90% or above (nearly complete death)) | 4 (mortality of at least 70% and less than 90%) | 4 (mortality of at least 70% and less than 90%) | K: redroot pigweed, herbicidal effect (evaluation scale 0-5) (redroot pigweed [20]): 3 (mortality of at least 40% and less than 70%); F: wild oat, herbicidal effect (evaluation scale 0-5) (wild oat [21]): 0 (mortality of less than 5% (almost ineffective)); H: Italian ryegrass, herbicidal effect (evaluation scale 0-5) (Italian ryegrass [22]): 2 (mortality of at least 20% and less than 40%); N: common chickweed, herbicidal effect (evaluation scale 0-5) (common chickweed [23]): 3 (mortality of at least 40% and less than 70%); I: velvetleaf, herbicidal effect (evaluation scale 0-5) (velvetleaf [24]): 3 (mortality of at least 40% and less than 70%); E: giant foxtail, herbicidal effect (evaluation scale 0-5) (giant foxtail [25]): 4 (mortality of at least 70% and less than 90%); M: posumbu knotweed, herbicidal effect (evaluation scale 0-5) (posumbu knotweed [26]): 5 (mortality of 90% or above (nearly complete death)); J: common ragweed, herbicidal effect (evaluation scale 0-5) (common ragweed [27]): 4 (mortality of at least 70% and less than 90%); L: common lambsquater, herbicidal effect (evaluation scale 0-5) (common lambsquater [28]): 3 (mortality of at least 40% and less than 70%); G: water foxtail, herbicidal effect (evaluation scale 0-5) (water foxtail [29]): 5 (mortality of 90% or above (nearly complete death)); A: barnyardgrass, herbicidal effect (evaluation scale 0-5) (barnyardgrass [30]): 5 (mortality of 90% or above (nearly complete death)); O: beadstraw, herbicidal effect (evaluation scale 0-5) (beadstraw [31]): 4 (mortality of at least 70% and less than 90%); D: large crabgrass, herbicidal effect (evaluation scale 0-5) (large crabgrass [32]): 5 (mortality of 90% or above (nearly complete death))
